Assay [1] has as its system FKBP-14.6. The assay is described as follows: Saturation binding of [^3 H]-dihydro FK-506 (LH-20 assay, Scatchard and Hill plots). Set-up: species or system calf. As to conditions: for Kd: saturation, eight concentrations of labeled FK-506 (0.25-12 nM), read-out: Kd, single high affinity binding site. The procedure: (§1) Binding of [^3 H]-dihydro FK-506 to protein fractions was assessed using the LH-20 assay as described by Handschumacher et al., Science, 226:544 (1984). Briefly, in a final volume of 250 μl, labeled FK-506 (2-5.35 nM in EtOH) and 2-5 μg protein (200 μl) were preliminarily incubated, and the competition reaction begun by the addition of varying concentrations of unlabeled FK-506 or rapamycin. Following 20 minutes at room temperature, a 200 μl aliquot of the reaction mixture was filtered through a 1.8 mL bed-volume Sephadex LH-20 column equilibrated with 20 mM Tris buffer, pH 7.2, containing 5 mM 2-mercaptoethanol and 0.05 % NAN3. Elution with five 250 μL portions of the assay buffer separated protein-bound [^3 H]-dihydro FK-506 from free labeled drug (Sjovall et al., in Giddlings et al., Advances in Chromatography, Marcel Dekker, Inc., N.Y., vol. 6, pp. 119-170 (1968)). Radioactivity in the 1.25 mL eluate was measured by liquid scintillation spectrometry (Optima Gold Scintillation cocktail, Packard Chemicals, Meriden, Conn.) operating at 59% efficiency. Non-specific binding was estimated by the addition of 1 μM unlabeled FK-506, which displaced ≥95% of the bound radioligand from binding sites.
To obtain binding site information for the FKBP-14.6 protein, Scatchard plots were obtained in saturation experiments using eight concentrations of labeled FK-506 (0.25-12 nM) in triplicate (FIG. 4A). In FIG. 4A, specific binding is shown by (-.cndot.-.cndot.-) and non-specific binding by (- - -). Data were analyzed with the EBDA and Ligand Corporation programs.

For assay [2], the system named is FKBP-14.6. The assay can be described thus: Competition binding against [^3 H]-dihydro FK-506 (LH-20 assay). Set-up: species or system calf. The conditions noted are these: for Kd: 6 nM [^3 H]-dihydro FK-506, rapamycin 0.1 nM-1 μM, 0.2% Tween-20, 50% receptor occupation. The procedure: as §1
To determine if rapamycin interacted with FK-506's binding site on FKBP-14.6, competition studies were carried out using 6 nM [^3 H]-dihydro FK-506 and 8 concentrations of rapamycin (0.1 nM-1 μM) in a buffer containing 0.2% Tween-20. Unlabeled FK-506 (1 μM) was used to define nonspecific binding.

Some results are limits rather than exact numbers.

As to `C=CC[C@@H]1/C=C(\C)C[C@H](C)C[C@H](OC)[C@H]2O[C@@](O)(C(=O)C(=O)N3CCCC[C@H]3C(=O)O[C@H](/C(C)=C/[C@@H]3CC[C@@H](O)[C@H](OC)C3)[C@H](C)[C@@H](O)CC1=O)[C@H](C)C[C@@H]2OC` [FK-506], in the assay with FKBP-14.6 [1] (Scatchard analysis, purified 14.6 kDa protein), the “binding site Bmax” value is recorded as “about 67 nmoles/mg protein”. The “bound radioligand displaced from binding sites” value in the assay on FKBP-14.6 [2] (1 μM unlabeled FK-506, 20 min) is on record as no less than 95%.

`CO[C@H]1C[C@@H]2CC[C@@H](C)[C@@](O)(O2)C(=O)C(=O)N2CCCC[C@H]2C(=O)O[C@H]([C@H](C)C[C@@H]2CC[C@@H](O)[C@H](OC)C2)CC(=O)[C@H](C)/C=C(\C)[C@@H](O)[C@@H](OC)C(=O)[C@H](C)C[C@H](C)/C=C/C=C/C=C/1C` [Rapamycin]: the “displacement of [^3 H]-dihydro FK-506 (manner)” value in the assay with FKBP-14.6 [2] (6 nM [^3 H]-dihydro FK-506, 8 concentrations of rapamycin) is given as “biphasic manner”. In addition, the Kd turned out to be 0.023 nM at FKBP-14.6 [2] (read-out: Kd, high affinity binding site) and 226 nM on FKBP-14.6 [2] (read-out: Kd, low affinity binding site).

In the case of `CCC[C@@H]1/C=C(\C)C[C@H](C)C[C@H](OC)[C@H]2O[C@@](O)(C(=O)C(=O)N3CCCC[C@H]3C(=O)O[C@H](/C(C)=C/[C@@H]3CC[C@@H](O)[C@H](OC)C3)[C@H](C)[C@@H](O)CC1=O)[C@H](C)C[C@@H]2OC` [[^3 H]-dihydro FK-506], the Kd was roughly 1.77 nM on FKBP-14.6 [1] (purified 14.6 kDa protein, listed as [^3 H]-FK-506) and 1.77 nM at FKBP-14.6 [1] (purified 14.6 kDa protein).

Take `[3H]CC([3H])C[C@@H]1/C=C(\C)C[C@H](C)C[C@H](OC)[C@H]2O[C@@](O)(C(=O)C(=O)N3CCCC[C@H]3C(=O)O[C@H](/C(C)=C/[C@@H]3CC[C@@H](O)[C@H](OC)C3)[C@H](C)[C@@H](O)CC1=O)[C@H](C)C[C@@H]2OC` (some centres unmarked) [[^3 H]-dihydro FK-506]: the Hill coefficients result in the assay with FKBP-14.6 [1] (saturation experiments, single class of binding sites) was “near unity”.

Source of the values: US5525523A, “Binding method for FK-506- and rapamycin-like drugs with a novel immunophilin” (Children's Research Institute, priority 1994, dated 1996).
